{"source": "patent US9844535B2", "about": "“SHP2 inhibitors and methods of treating autoimmune and/or glomerulonephritis-associated diseases using SHP2 inhibitors” (Indiana University Research and Technology Corporation, priority 2013, dated 2017)", "key": {"MRL/lpr mice": {"system": "MRL/lpr mice", "assay": "Longevity study", "type": "in vivo, mouse", "settings": "SLE-prone MRL/lpr mice, 7.5 mg/kg/day ip from 11 weeks of age; listed as SHP2 inhibitor", "experimental": "Female MRL/lpr mice were used for a survival/longevity curve analysis. Mice either ip injected with vehicle (DMSO) or SHP2 inhibitor (7.5 mg/kg/each day) were followed beginning at 11 weeks of age to assess tolerance to the inhibitor and longevity/survival curve. The testing was terminated when the last mouse in the control group died, at 26 weeks."}, "[1]": {"system": "MRL/lpr mouse kidney immune cells", "assay": "Flow cytometry of immune cells infiltrating the kidney", "type": "in vivo", "settings": "MRL/lpr mice vs vehicle", "experimental": "Kidney, spleen, lung, and axillary lymph nodes were excised from either vehicle or drug-treated mice, and single cell suspensions were obtained by teasing the organs through a nylon mesh. Briefly, kidneys were cut into small pieces and homogenized on a 70 μm nylon mesh in 5 ml of Hank's Balanced Salt Solution (HBSS) buffer. All of the homogenized tissues and cells were transferred to new 50 ml tubes and digested with collagenase type 4 (100 ug/ml) (Worthington Biochemical Corp., Freehold, N.J.) in HBSS for 30 minutes to 2 hours (37° C.) on a rotating shaker. After digestion, the cells were centrifuged at 2000 rpm for 10 minutes, and the kidney cell isolates were generated, which included infiltrated immune cell subsets.\nTo identify immune cell subsets, isolated cells from tissues were immunostained with mouse antibodies targeted against CD3E (145-2C11, BioLegend, San Diego, Calif.), CD4 (GK1.5, BioLegend), CD8 (53-6.7, eBioscience, San Diego, Calif.), CD45 (30-F11, eBioscience), CD 19 (6125, BioLegend), CD11b (M1170, BioLegend), TCRαβ (H57-597, BioLegend), CD44 (IM7, BioLegend), B220 (RA3-6B2, B.D. […], BD Biosciences, San Jose Calif.), CD138 (281-2, BioLegend), CD38 (CD28.2, BioLegend), Gr-1 (RB6.805, eBioscience), CD62L (DREG-56, BioLegend), and CD25 (PC61, BioLegend) for 30 minutes at 4° C. Samples were acquired on a LSR II flow cytometer (BD Biosciences) and the percentage of each sub-population of cells (B, T, monocytes, macrophage and neutrophils) was assessed by FlowJo [version 7.2.2 (Tree Star)]. Total cell numbers were counted using a hemocytometer. Absolute cell numbers for each sub-population were calculated based on the percentage of each population.\nB cells, T cells, macrophage and neutrophils from the MRL/lpr inhibitor-treated and vehicle-treated mouse kidneys of Example 9 were isolated."}, "IFNγ, TNFα, IL17, IL6": {"system": "IFNγ, TNFα, IL17, IL6", "assay": "Cytokine ELISA", "type": "in vivo, mouse", "settings": "SLE-prone mice", "source_text": "ELISA assays were used to detect for the presence of various cytokines in mouse serum isolated from vehicle or drug-treated animals or from medium supernatant isolated from tissue cell cultures as described above. In addition, ELISA was also used to detect total IgG and dsDNA IgG from mouse serum and for the assay to detect urine albumin and creatinine levels. ELISA detection kits for mouse cytokines IL-6 and TNFα were purchased from eBioscience, mouse cytokines IL-17A, IFNγ, and human IFNγ were purchased from Biolegend, kits for the albumin and creatinine were purchased from Exocell, and kits for the serum IgG and anti-dsDNA IgG were purchased from Alpha Diagnostic (San Antonio, Tex.). ELISAs were all performed according to the manufacturer's instructions.\nCytokine analyses: In brief, capture antibodies for each cytokine were precoated on 96-well plates overnight at 4° C., then 100 μl of 5× diluted serum or 300× diluted supernatant medium was loaded on the precoated wells in duplicate and left overnight at 4° C. (with the exception of the human IFNγ assay isolated from supernatant medium, where the dilution used was 1:30). As per the protocol instructions, enzyme-antibody conjugate, TMB substrate and stopping buffer were added sequentially. The colorimetric analysis, as measured by optical density (OD) within each well, was determined using a microplate reader set at a wavelength of 450 nm. The cytokine concentrations were calculated and measured against a standard curve for each cytokine.\nAn ELISA was conducted to detect concentrations of IFNγ, TNFα, IL17, and IL6 in T cells derived from spleen."}, "SLE-prone mice hearts": {"system": "SLE-prone mice hearts", "assay": "Echocardiography", "type": "in vivo, mouse", "settings": "vs vehicle-treated SLE mice", "experimental": "Transthoracic echocardiography was conducted on non-anesthetized animals as described previously in Marin et al., J Clin Invest. 2011; 121:1026-1043, with a 13-MHz probe (Vivid 7, GE Medical Systems, Boston, Mass.) or VisualSonics Vevo 770 high-frequency ultrasound rodent imaging system (VisualSonics, Toronto, Ontario). GE Medical Systems or VisualSonics Vevo 770 software was used for data acquisition and subsequent analysis. Hearts were imaged in the 2-dimensional parasternal short-axis view, and an M-mode echocardiogram of the midventricular region was recorded at the level of the papillary muscles. Calculations of cardiac anatomic and functional parameters were carried out as described in Marin et al., J Clin Invest. 2011; 121:1026-1043."}}, "note": "Entries after “also recorded” stand apart in the source; their conditions may differ."}
{"smiles": "Cn1c(-c2cccc(NC(=O)C(=O)Nc3ccc(-c4ccsc4)cc3)c2)c(I)c2cc(C(=O)O)c(O)cc21", "note": "[11a-1]", "values": [{"measurement": "lifespan / survival (Kaplan-Meier)", "setting": "MRL/lpr mice", "value": "significantly increased lifespan; also recorded: increased longevity/survival effect"}, {"measurement": "B cells in kidney", "setting": "[1]", "value": "no discernable differences"}, {"measurement": "infiltrating T cells in the SLE kidney", "setting": "[1]", "value": "significantly reducing the overall number of CD4, CD8, and double-negative T cells"}, {"measurement": "infiltrating neutrophils and macrophages in kidney", "setting": "[1]", "value": "significant reduction in numbers of infiltrating neutrophils and macrophages"}, {"measurement": "IFNγ", "setting": "IFNγ, TNFα, IL17, IL6", "value": "significant decreases"}, {"measurement": "IL6", "setting": "IFNγ, TNFα, IL17, IL6", "value": "No effects"}, {"measurement": "IL17", "setting": "IFNγ, TNFα, IL17, IL6", "value": "No effects"}, {"measurement": "TNFα", "setting": "IFNγ, TNFα, IL17, IL6", "value": "No effects"}, {"measurement": "cardiac functional parameters", "setting": "SLE-prone mice hearts", "value": "significantly improved functional parameters"}, {"measurement": "left ventricular chamber dimension", "setting": "SLE-prone mice hearts", "value": "decreased chamber"}, {"measurement": "posterior wall thickness", "setting": "SLE-prone mice hearts", "value": "increased posterior wall measurements"}]}
